From patent US5506213A, “Adminstration of 2'-halo-2'-deoxy adenosine to treat inflammatory bowel disease” (priority 1994, dated 1996)

Experiments:
[1] = tested on: freshly isolated human monocytes; assay: Dose- and time-dependence of CdA cytotoxicity toward monocytes; format: cell-based; conditions: 50 nM CdA (FIG. 3)
Experimental: FIG. 3 is a graph of the dose- and time-dependence of 2-chlorodeoxyadenosine (CdA) cytotoxicity toward human monocytes in vitro.
Freshly isolated human monocytes were cultured at a concentration of 10^5 cells/well in 96-well flat-bottom tissue culture plates. The cells were incubated in complete medium (Example 2) for about 12 hours following initial plating. The cells were then treated by the addition of various concentrations of CdA to form monocyte-containing compositions specific wells and the plates were incubated, as discussed previously.
The percentage of viable cells that were present in wells containing the treated monocytes was determined daily for six days.

[2] = tested on: human monocytes; assay: Cellular NAD, ATP and viability in human monocytes exposed to CdA; format: cell-based; conditions: CdA at 1 nM
Experimental: (§1) FIG. 5 is a graph showing the biochemical effects induced in human monocytes in vitro by exposure to […] CdA over a period of 16 hours. The effects of CdA exposure upon monocyte viability (open squares), NAD content (closed squares), RNA synthesis (open circles) and DNA strand breaks (ds-DNA; closed circles) are illustrated.
Cellular NAD content was measured in human monocytes following incubation in culture with CdA (1 nM). An alcohol dehydrogenase cycling assay as described in Jacobson and Jacobson (1976) Arch. Biochem. Biophys. 175:627-634 was used to measure NAD.
Monocytes, cultured and contacted as before described, were detached from the culture wells and were treated with perchloric acid (0.5M) for 10 minutes at 4 degrees C. The mixture was clarified and neutralized with KOH containing potassium phosphate buffer (0.33M) at pH 7.5.Monocyte ATP was quantitated in perchloric acid extracts by anion exchange HPLC, using a Whatman SAX column with an isocratic mobile phase consisting of KH2 PO4 (0.25M), KCl (0.5M) and acetonitrile (2 percent) at pH 3.6 following the procedures of Carson et al. (1980) Proc. Nat'l. Acad, Sci. USA, 77:6865-6869.
NAD^+ consumption for poly(ADP-ribose) synthesis is a known consequence of severe DNA damage in eukaryotic cells. […]

[3] = tested on: interleukin-1β (IL-1β); assay: Plasma IL-1beta in a rheumatoid arthritis patient, ELISA; format: in vivo, human; conditions: each last infusion day compared to pretreatment values; one patient; preliminary
Excerpt: Preliminary studies have also measured the concentration of interleukin-1β (IL-1β) in cryopreserved plasma samples from one of the rheumatoid arthritis patients. IL-1β is a lymphokine released by antigen-stimulated macrophages that promotes the formation of interleukin-2 in antigen-activated cytotoxic T cells. IL-2 promotes mitosis in activated cytotoxic T cells.
This patient received CdA, as before, in four treatments over a time period of almost 100 days. Each treatment was by 5-day continuous infusion.
IL-1β concentrations were measured using a commercially available ELISA kit (Cistron).

[4] = tested on: RNA synthesis in monocytes; assay: Monocyte RNA synthesis, 3H-uridine incorporation; format: cell-based, human; conditions: 1 nM CdA; detectable after the first hour of culture
Experimental: as §1
Monocyte RNA synthesis following CdA exposure was studied by measuring the incorporation of ^3 H-uridine. Monocytes were exposed to ^3 H-uridine (20 μCi/10^6 cells) during the final 1 hour of CdA (1 nM) exposure. Radioactivity measured was contained in trichloroacetic acid precipitates collected onto cellulose acetate filters and measured by liquid scintillation counting.

[5] = tested on: rheumatoid arthritis; assay: CdA 5-day continuous infusion in rheumatoid arthritis patients: cell counts and joint parameters; format: in vivo, human
Experimental: FIG. 7 is a graph showing the results of a study of the cytotoxicity of CdA toward monocytes and lymphocytes of a rheumatoid arthritis patient receiving CdA therapy. A continuous intravenous infusion of CdA (0.1 mg/ml in isotonic saline) was administered at a dosage of 0.1 mg/kg per day for a five-day period. Monocyte numbers are shown as open squares and lymphocyte numbers are shown as closed diamonds. Three cycles of infusions of CdA were given, and are illustrated as open rectangles for the five-day time periods of each infusion at a position in the graph above the days in the treatment regimen on which infusions were given.
A study similar to that described in Example 1 was carried out with three patients having rheumatoid arthritis. In each instance, the patient had been unsuccessfully treated with methotrexate, a gold salt or penicillamine, which treatment had been stopped three weeks prior to the first treatment with CdA. […]
A specially trained nurse examined the number of swollen and painful joints in each of the patients prior to the start of each treatment. The values obtained are as listed for each patient.
PIP joint measurements refer to the total arthrocircameter measurements, in mm, of each proximal interphalangeal (PIP) joint, for each patient. Values are shown for each of the three patients.
Each patient was asked to rank his or her performance of nine function parameters on a 0 to 10 scale, 10 being the highest. These function parameters were: turning in bed, rising from a chair, buttoning buttons, combing hair, walking, turning knobs, climbing stairs, getting in and out of an automobile, and general well being. The total score on these nine parameters for each patient is listed as the performance index.

[6] = Pt. # 1, CdA treatment course 1
[7] = Pt. # 1, CdA treatment course 2
[8] = Pt. # 1, CdA treatment course 3
[9] = Pt. # 1, prior to start of CdA treatment course 1
[10] = Pt. # 1, prior to start of CdA treatment course 2
[11] = Pt. # 1, prior to start of CdA treatment course 3
[12] = Pt. # 2, CdA treatment course 1
[13] = Pt. # 2, CdA treatment course 2
[14] = Pt. # 2, CdA treatment course 3
[15] = Pt. # 2, prior to start of CdA treatment course 1
[16] = Pt. # 2, prior to start of CdA treatment course 2
[17] = Pt. # 2, prior to start of CdA treatment course 3
[18] = Pt. # 2, prior to start of CdA treatment course 4
[19] = Pt. # 2, prior to start of CdA treatment course 5
[20] = Pt. # 2, prior to start of CdA treatment course 6
[21] = Pt. # 3, CdA treatment course 1
[22] = Pt. # 3, CdA treatment course 2
[23] = Pt. # 3, CdA treatment course 3
[24] = Pt. # 3, prior to start of CdA treatment course 1
[25] = Pt. # 3, prior to start of CdA treatment course 2
[26] = Pt. # 3, prior to start of CdA treatment course 3
[27] = Pt. # 3, prior to start of CdA treatment course 4

Q: Which cell viability [1] does the source give for Nc1nc(Cl)nc2c1ncn2[C@H]1C[C@H](O)[C@@H](CO)O1 [CdA, 2-chloro-9,1'-beta-D-2'-deoxyribosyladenine] here?
A: significant decrease in cell viability within two days

Q: And the “exposure time at which decreases in ATP and cell viability were first evident” value [2]?
A: 16 h

Q: And the “monocyte NAD content” value ([2]; first four hours of exposure)?
A: > 95% of control NAD

Q: And the “plasma IL-1β level” value [3]?
A: significantly lower

Q: And the RNA synthesis [4]?
A: progressive reduction in RNA synthesis

Q: What about the “PIP Joint Measurement (Totals, in mm)” value [5, 6] of the same compound?
A: 583 mm

Q: And the “Performance Index (total score on nine function parameters, each 0 to 10)” value (“Performance Index” below) [5, 6]?
A: 70

Q: And the “PIP Joint Measurement (Totals, in mm)” value [5, 7]?
A: 612 mm

Q: And the “Performance Index” value [5, 7]?
A: 33

Q: What about the “PIP Joint Measurement (Totals, in mm)” value [5, 8] of the same compound?
A: 560 mm

Q: And the “Performance Index” value [5, 8]?
A: 27

Q: What about the “Painful Joints” value [5, 9] of the same compound?
A: 73/38

Q: And the “Swollen Joints” value [5, 9]?
A: 51/47

Q: What about the “Painful Joints” value [5, 10] of the same compound?
A: 39

Q: What about the “Swollen Joints” value [5, 10] of the same compound?
A: 37

Q: What about the “Painful Joints” value [5, 11] of the same compound?
A: 23

Q: And the “Swollen Joints” value [5, 11]?
A: 25

Q: And the “PIP Joint Measurement (Totals, in mm)” value [5, 12]?
A: 527 mm

Q: And the “Performance Index” value [5, 12]?
A: 46

Q: And the “PIP Joint Measurement (Totals, in mm)” value [5, 13]?
A: 526 mm

Q: And the “Performance Index” value [5, 13]?
A: 28

Q: And the “PIP Joint Measurement (Totals, in mm)” value [5, 14]?
A: 531 mm

Q: And the “Performance Index” value [5, 14]?
A: 22

Q: What about the “PIP Joint Measurement (Totals, in mm)” value ([5]; Pt. # 2, CdA treatment course 4) of the same compound?
A: 498 mm

Q: What about the “PIP Joint Measurement (Totals, in mm)” value ([5]; Pt. # 2, CdA treatment course 5) of the same compound?
A: 485 mm

Q: What about the “PIP Joint Measurement (Totals, in mm)” value ([5]; Pt. # 2, CdA treatment course 6) of the same compound?
A: 506 mm

Q: What about the “Painful Joints” value [5, 15] of the same compound?
A: 32

Q: And the “Swollen Joints” value [5, 15]?
A: 9

Q: What about the “Painful Joints” value [5, 16] of the same compound?
A: 34

Q: What about the “Swollen Joints” value [5, 16] of the same compound?
A: 27

Q: And the “Painful Joints” value [5, 17]?
A: 28

Q: And the “Swollen Joints” value [5, 17]?
A: 25

Q: What about the “Painful Joints” value [5, 18] of the same compound?
A: 36

Q: And the “Swollen Joints” value [5, 18]?
A: 22

Q: And the “Painful Joints” value [5, 19]?
A: 27

Q: And the “Swollen Joints” value [5, 19]?
A: 23

Q: What about the “Painful Joints” value [5, 20] of the same compound?
A: 26

Q: And the “Swollen Joints” value [5, 20]?
A: 14

Q: And the “PIP Joint Measurement (Totals, in mm)” value [5, 21]?
A: 560 mm

Q: And the “Performance Index” value [5, 21]?
A: 30

Q: What about the “PIP Joint Measurement (Totals, in mm)” value [5, 22] of the same compound?
A: 548 mm

Q: What about the “Performance Index” value [5, 22] of the same compound?
A: 36

Q: What about the “PIP Joint Measurement (Totals, in mm)” value [5, 23] of the same compound?
A: 549 mm

Q: What about the “Performance Index” value [5, 23] of the same compound?
A: 32

Q: What about the “PIP Joint Measurement (Totals, in mm)” value ([5]; Pt. # 3, CdA treatment course 4) of the same compound?
A: 602 mm

Q: What about the “Painful Joints” value [5, 24] of the same compound?
A: 36

Q: What about the “Swollen Joints” value [5, 24] of the same compound?
A: 16

Q: And the “Painful Joints” value [5, 25]?
A: 40

Q: What about the “Swollen Joints” value [5, 25] of the same compound?
A: 17

Q: And the “Painful Joints” value [5, 26]?
A: 54

Q: What about the “Swollen Joints” value [5, 26] of the same compound?
A: 14

Q: And the “Painful Joints” value [5, 27]?
A: 59

Q: What about the “Swollen Joints” value [5, 27] of the same compound?
A: 11

Q: And the “time for monocyte numbers to return to approximately pre-treatment number” value ([5]; after infusion of CdA was stopped for each cycle)?
A: within about ten days

Q: What about the “arthritic disease states at follow-up” value ([5]; all three patients, reported by personal physicians) of the same compound?
A: had improved

Q: What about the “total white cell count drop from pretreatment values” ([5]; follow-up, two patients, lasted about three years and over one year post treatment) of the same compound?
A: about 50%

Q: What about the “adverse event leading to drop-out” value ([5]; one patient, after CdA treatment) of the same compound?
A: overwhelming fatigue phenomenon

Q: And the monocyte number ([5]; patient 1, during each CdA administration cycle, 0.1 mg/kg per day, five days)?
A: dropped to substantially zero

Q: And the “neutrophil and platelet numbers” value ([5]; patient 1, throughout the one hundred days of the study)?
A: substantially constant

Q: And the “patients with a reduction in the number of painful or swollen joints” value ([5]; three rheumatoid arthritis patients)?
A: two of the three patients
